“And” between values parts separate entries of the source, which are not always exact repeats. Equal values may be shown once.
How the values were obtained:
[1] = xn = mol fraction of the nth substance listed

OC1CCCC1
100 kPa
Details | viscosity
293.15 K | 12.9 mPa·s
298.15 K | 10.41 mPa·s
303.15 K | 8.2 mPa·s and 8.088 mPa·s
308.15 K | 6.85 mPa·s and 6.528 mPa·s
318.15 K | 4.742 mPa·s
318.16 K | 4.87 mPa·s

Clc1ccccc1
Details | viscosity
293.15 K, 101 kPa | 0.768 mPa·s and 0.793 mPa·s and 0.8062 mPa·s
293.15 K, 101.33 kPa | 0.806 mPa·s and 0.8522 mPa·s
293.45 K, 101.33 kPa | 0.8265 mPa·s
298.15 K, 101.3 kPa | 0.773 mPa·s
298.15 K, 101.33 kPa | 0.8131 mPa·s and 0.755 mPa·s
299 K, 101 kPa | 1.182 mPa·s
303.15 K, 101.3 kPa | 0.725 mPa·s
303.55 K, 101.33 kPa | 0.743 mPa·s
308.15 K, 101.3 kPa | 0.666 mPa·s and 0.683 mPa·s
312.75 K, 101.33 kPa | 0.6695 mPa·s
313.15 K, 101.33 kPa | 0.6469 mPa·s and 0.639 mPa·s
314.25 K, 101.33 kPa | 0.643 mPa·s
318.15 K, 101 kPa | 0.5629 mPa·s and 0.5924 mPa·s and 0.601 mPa·s
318.15 K, 101.3 kPa | 0.615 mPa·s
318.15 K, 101.33 kPa | 0.607 mPa·s
322.35 K, 101.33 kPa | 0.6069 mPa·s
323.15 K, 101 kPa | 0.5724 mPa·s and 0.5701 mPa·s and 0.566 mPa·s
323.15 K, 101.33 kPa | 0.5724 mPa·s

COC(C)(C)C
viscosity
Details | 293.15 K | 298.15 K | 303.15 K | 308.15 K | 313.15 K | 318.15 K | 323.15 K
100 kPa | 0.345 mPa·s | 0.32 mPa·s | 0.297 mPa·s | 0.275 mPa·s | 0.252 mPa·s | 0.231 mPa·s | 0.206 mPa·s
101 kPa | 0.387 mPa·s and 0.371 mPa·s | 0.374 mPa·s and 0.3558 mPa·s and 0.348 mPa·s | – | 0.341 mPa·s and 0.3245 mPa·s | 0.321 mPa·s | 0.297 mPa·s | 0.276 mPa·s
101.33 kPa | 0.3861 mPa·s and 0.3861 mPa·s | 0.3687 mPa·s and 0.3687 mPa·s and 0.3353 mPa·s | 0.3163 mPa·s | – | 0.2876 mPa·s | – | –

CC1=CCC(=C(C)C)CC1
101 kPa
Details | viscosity [mPa·s]
303.15 K | 1.007
308.15 K | 0.945
313.15 K | 0.884

COCCOCCOCCOCCOC + CCCCCCO
viscosity [mPa·s], [1], 100 kPa
Details | x2 = 0.1043 | x2 = 0.2031 | x2 = 0.3014 | x2 = 0.4023 | x2 = 0.5043 | x2 = 0.6003 | x2 = 0.7007 | x2 = 0.8057 | x2 = 0.8986
293.15 K | 3.597 | 3.447 | 3.317 | 3.222 | 3.167 | 3.167 | 3.216 | 3.482 | 3.977
298.15 K | 3.177 | 3.048 | 2.933 | 2.852 | 2.8 | 2.797 | 2.835 | 3.049 | 3.453
303.15 K | 2.83 | 2.716 | 2.617 | 2.543 | 2.494 | 2.488 | 2.52 | 2.688 | 3.023
308.15 K | 2.538 | 2.438 | 2.35 | 2.282 | 2.237 | 2.227 | 2.251 | 2.387 | 2.661
313.15 K | 2.293 | 2.204 | 2.124 | 2.062 | 2.019 | 2.007 | 2.023 | 2.131 | 2.356
318.15 K | 2.093 | 2.012 | 1.94 | 1.88 | 1.845 | 1.826 | 1.838 | 1.926 | 2.111

N#CCCCCC#N + CC(=O)N(C)C
[1], 303.15 K, 101.33 kPa
Details | viscosity [mPa·s]
x1 = 0.0999 | 0.9801
x1 = 0.2976 | 1.363
x1 = 0.3998 | 1.666
x1 = 0.4988 | 2.029
x1 = 0.5898 | 2.42
x1 = 0.699 | 2.965
x1 = 0.8491 | 3.85

CCc1ccccc1 + CCCCO
[1], 298.15 K, 101.33 kPa
Details | viscosity [mPa·s]
x2 = 0.1608 | 0.666
x2 = 0.2901 | 0.735
x2 = 0.4235 | 0.849
x2 = 0.5335 | 0.999
x2 = 0.6392 | 1.183
x2 = 0.7407 | 1.435
x2 = 0.8339 | 1.756
x2 = 0.9191 | 2.126

From the CheMixHub viscosity set
